Reference: US9630941B2 (priority 2008, dated 2017)

What was measured:
[1] = Aqueous solubility, pH dependent; type: physicochemical
[2] = Plasma THC from HME buccal patches in swine model; type: in vivo
Method: THC was used as control formulation. Plasma was sampled from each animal at predetermined times and the amount of THC in the plasma was determined.
FIG. 20: Plasma THC concentrations as a function of time from THC-Val-HS loaded HME buccal patches. Data represents the mean value from 4 pigs. The animals were maintained under anesthesia for the first 4 hours and were then allowed to come out of anesthesia and given access to food and water.
A dose dependent plasma concentration time profile was then evaluated.
Plasma THC concentrations as a function of time and dose from THC-Val-HS loaded HME patches. Data represents the mean value. The animals for maintained under anesthesia for the first 4 hours and were then allowed to come out of anesthesia and given access to food and water.

[3] = Chemical stability pH dependent at 25° C.; type: physicochemical
Method: B. Chemical Stability pH Dependent at 25° C.

[4] = system: intraocular pressure (IOP) induced model of glaucoma; test: Rabbit glaucoma model, IOP lowering after topical instillation; settings: for Peak IOP drop, IOP as % of the baseline IOP: 50 μL topical
[5] = Maximum amount dissolved in topical formulations; type: physicochemical
[6] = In vivo ocular bioavailability of THC after topical formulations
[7] = Bioreversion: plasma stability, porcine plasma; type: in vitro ADME
[8] = Plasma THC after rectal suppository (PEG 1000) in rat; settings: polyethylene glycol 1000 base, dose equivalent to 1 mg THC
[9] = Thermal stability, 120° C. for 10 min; type: physicochemical; settings: for CBN content of the sample after heating / Drug remaining / THC content of the sample after heating / Drug remaining (%): 120° C. for 10 min; for Drug remaining (%): % of initial; for CBN content of the sample, initial / Initial, μg (drug itself) / THC content of the sample, initial: before heating
Method: C. Thermal Stability—120° C. for 10 min.

[10] = Control (IPBS) stability for the buccal homogenate study; type: physicochemical
Method: (§1) b. Porcine Buccal Tissue Homogenate Stability
(§2) Protein Concentration 2 mg/ml

[11] = Stability of THC-Val-HS HME transmucosal patch; settings: for Assay (as a % of theoretical amount): HME transmucosal patch
[12] = Porcine buccal tissue homogenate stability; type: in vitro ADME; settings: protein concentration 2 mg/ml
Method: as §1, §2

[13] = Bioreversion: plasma stability, rabbit plasma; type: in vitro ADME
[14] = THC-Val-HS 0.25% w/v in 0.1% Cremophor RH 40 + 0.02% BAK + 0.1% EDTA + 0.5% HPMC, 1 Hour
[15] = THC-Val-HS 0.26% w/v in 2.5% HPβCD + 0.5% HPMC, 1 Hour
[16] = THC-Val-HS 0.26% w/v in 2.5% HPβCD + 0.5% HPMC, 3 Hours
[17] = THC-Val-HS 10% w/w Ocular Film, 1 Hour
[18] = THC-Val-HS 10% w/w Ocular Film, 3 Hours

CCCCCc1cc(OC(=O)C(NC(=O)CCC(=O)O)C(C)C)c2c(c1)OC(C)(C)C1CCC(C)=CC21 (centres unmarked) [THC-Valinate-HS (15), THC-valinate-hemisuccinate]
Aqueous Solubility ([1]; H20): 8.50 ± 6.00 µg/mL | Aqueous Solubility ([1]; Water): 16.54 ± 11.69 µM | Aqueous Solubility ([1]; pH 1.2): 0.06 ± 0.03 µg/mL | Aqueous Solubility ([1]; pH 1.2, listed as THC-Valine-HS): 0.12 ± 0.06 µM | Aqueous Solubility ([1]; pH 2): 0.09 ± 0.03 µg/mL | Aqueous Solubility ([1]; pH 2, listed as THC-Valine-HS): 0.17 ± 0.06 µM | Aqueous Solubility ([1]; pH 5): 0.35 ± 0.02 µg/mL | Aqueous Solubility ([1]; pH 5, listed as THC-Valine-HS): 0.67 ± 0.04 µM | Aqueous Solubility ([1]; pH 6): 12.74 ± 1.80 µg/mL | Aqueous Solubility ([1]; pH 6, listed as THC-Valine-HS): 24.80 ± 3.51 µM | Aqueous Solubility ([1]; pH 7): 155.67 ± 31.19 µg/mL | Aqueous Solubility ([1]; pH 7, listed as THC-Valine-HS): 303.06 ± 60.72 µM | Aqueous Solubility ([1]; pH 8): 117.04 ± 10.91 µg/mL | Aqueous Solubility ([1]; pH 8, listed as THC-Valine-HS): 227.86 ± 21.24 µM | Aqueous Solubility ([1]; pH 9): 0.02 ± 0.00 µg/mL | Aqueous Solubility ([1]; pH 9, listed as THC-Valine-HS): 0.05 ± 0.00 µM | Dose dependence of THC blood levels from HME patches ([2]; swine, 5, 10, 20 mg formulations): dose dependant | 11-OH-THC or carboxy metabolite THC-COOH in plasma ([2]; swine, buccal patch): not seen | THC levels in plasma from transmucosal HME patches ([2]; swine, buccal patch, listed as THC-Val-HS): Significant plasma THC levels were observed | First order rate constant ([3]; Buffer pH 5.0, 25° C.): Stable | First order rate constant ([3]; Buffer pH 7.0, 25° C.): Stable | First order rate constant ([3]; Buffer pH 9.0, 25° C.): Stable | First order rate constant ([3]; Water, 25° C.): Stable | Peak IOP drop, IOP as % of the baseline IOP ([4]; Tocrisolve emulsion, 0.97% w/v THC-Val-HS): 53±3% | IOP-time profile compared with THC ([4]; at a lower dose): significantly better than that of THC | Duration of action (time taken for IOP to return to 90% of baseline) ([4]; both formulations): about 4 hours | time to peak IOP drop after instilling ([4]; micellar solution and Tocrisolve emulsion): ≤ 90 min | Peak IOP drop, IOP as % of the baseline IOP ([4]; micellar solution, 0.89% w/v THC-Val-HS): 62±3% | maximum amount that could be dissolved ([5]; Tocrisolve emulsion): 0.97 % w/v | maximum amount that could be dissolved ([5]; micellar solution: HPβCD 15% + Cremophor RH 40 0.25% + BAK 0.01% + EDTA 0.1% + HPMC 0.5% w/v): 0.89 % w/v | THC concentrations in aqueous humor, iris-ciliary bodies / anterior segment ocular tissues ([6]; 1 hour post topical application): significant THC concentrations | Total THC concentration, Aqueous Humor [6, 14]: 62.1 ± 12.6 ng/100 μL | Total THC concentration, Cornea [6, 14]: 1191.7 ± 231.1 ng/50 mg Tissue | Total THC concentration, Iris-Cilliary Body [6, 14]: 51.44 ± 19.5 ng/50 mg Tissue | Total THC concentration, Sclera [6, 14]: 913.4 ± 432.9 ng/250 mg Tissue | Total THC concentration, Aqueous Humor [6, 15]: 69.4 ± 16.7 ng/100 μL | Total THC concentration, Cornea [6, 15]: 1677.1 ± 172.1 ng/50 mg Tissue | Total THC concentration, Iris-Cilliary Body [6, 15]: 65.8 ± 15.9 ng/50 mg Tissue | Total THC concentration, Sclera [6, 15]: 882.2 ± 185.8 ng/250 mg Tissue | Total THC concentration, Aqueous Humor [6, 16]: 38.3 ± 10.2 ng/100 μL | Total THC concentration, Cornea [6, 16]: 1142.3 ± 415.9 ng/50 mg Tissue | Total THC concentration, Iris-Cilliary Body [6, 16]: 57.9 ± 16.1 ng/50 mg Tissue | Total THC concentration, Sclera [6, 16]: 241.8 ± 106.6 ng/250 mg Tissue | Total THC concentration, Aqueous Humor [6, 17]: 61.3 ± 32.1 ng/100 μL | Total THC concentration, Cornea [6, 17]: 1634.5 ± 756.5 ng/50 mg Tissue | Total THC concentration, Iris-Cilliary Body [6, 17]: 86.03 ± 38.2 ng/50 mg Tissue | Total THC concentration, Retina-Choroid [6, 17]: 17.02 ± 8.01 ng/50 mg Tissue | Total THC concentration, Sclera [6, 17]: 1891.2 ± 771.5 ng/250 mg Tissue | Total THC concentration, Aqueous Humor [6, 18]: 29.1 ± 14.2 ng/100 μL | Total THC concentration, Cornea [6, 18]: 1043.4 ± 614.4 ng/50 mg Tissue | Total THC concentration, Iris-Cilliary Body [6, 18]: 104.2 ± 41.2 ng/50 mg Tissue | Total THC concentration, Retina-Choroid [6, 18]: 11.9 ± 4.9 ng/50 mg Tissue | Total THC concentration, Sclera [6, 18]: 812.6 ± 501.4 ng/250 mg Tissue | K [7]: 85.54 ± 3.74 ×10^−2 min^−1 | T1/2 [7]: 8.11 ± 0.35 min | Blood levels after rectal administration [8]: significant blood levels | Drug loading (%) [9]: 112.21 ± 4.99% | CBN content of the sample after heating [9]: 0 µg | Drug remaining [9]: 1350.13 ± 387.10 µg | THC content of the sample after heating [9]: 80.26 ± 8.59 µg | Drug remaining (%) [9]: (96.29 ± 3.89) % | CBN content of the sample, initial [9]: 0 µg | Initial, μg (drug itself) [9]: 1411.49 ± 459.10 µg | THC content of the sample, initial [9]: 96.52 ± 3.72 µg | K [10]: 0.40 ± 0.02 ×10^−3 min^−1 | Assay (as a % of theoretical amount) ([11]; 1 Month, 25° C./60% RH): 110.6 ± 0.1% | Assay (as a % of theoretical amount) ([11]; 1 Month, 40° C./75% RH): 80.9 ± 3.9% | Assay (as a % of theoretical amount) ([11]; 3 Month, 25° C./60% RH): 108.3 ± 4.6% | Assay (as a % of theoretical amount) ([11]; Initial): 108.4 ± 0.2% | Stability in the hot-melt-extruded formulation ([11]; three month stability data): stable | K [12]: 2.96 ± 0.19 ×10^−3 min^−1 | T1/2 [12]: 23.43 ± 1.49 min

CCCCCc1cc(OC(=O)C(N)C(C)C)c2c(c1)OC(C)(C)C1CCC(C)=CC21 (centres unmarked) [THC-Valinate (6), Δ^9-THC-valinate]
Aqueous Solubility ([1]; H20): 0.05 µg/mL | Aqueous Solubility ([1]; pH 1.2): 32.16 ± 0.27 µg/mL | Aqueous Solubility ([1]; pH 1.2, listed as THC-Valine): 78.23 ± 0.66 µM | Aqueous Solubility ([1]; pH 2): 53.66 ± 10.30 µg/mL | Aqueous Solubility ([1]; pH 2, listed as THC-Valine): 147.35 ± 24.90 µM | Aqueous Solubility ([1]; pH 3): 28.76 ± 0.14 µg/mL | Aqueous Solubility ([1]; pH 3, listed as THC-Valine): 69.78 ± 0.33 µM | Aqueous Solubility ([1]; pH 4): 10.34 ± 0.53 µg/mL | Aqueous Solubility ([1]; pH 4, listed as THC-Valine): 24.10 ± 1.28 µM | Aqueous Solubility ([1]; pH 5): 1.27 ± 0.25 µg/mL | Aqueous Solubility ([1]; pH 5, listed as THC-Valine): 3.51 ± 0.62 µM | Aqueous Solubility ([1]; pH 6): 0.07 ± 0.00 µg/mL | Aqueous Solubility ([1]; pH 6, listed as THC-Valine): 0.17 ± 0.00 µM | First order rate constant ([3]; Buffer pH 5.0, 25° C.): 4.06 ± 0.01 ×10^−3 h^−1 | First order rate constant ([3]; Buffer pH 7.0, 25° C.): 47.13 ± 1.16 ×10^−3 h^−1 | First order rate constant ([3]; Buffer pH 9.0, 25° C.): 67.64 ± 7.67 ×10^−3 h^−1 | First order rate constant ([3]; Water, 25° C.): 23.70 ± 0.77 ×10^−3 h^−1 | K [7]: 91.16 ± 10.91 ×10^−2 min^−1 | T1/2 [7]: 0.766 ± 0.092 min | K [13]: 61.94 ± 6.01 ×10^−2 min^−1 | T1/2 [13]: 1.124 ± 0.109 min | Drug loading (%) [9]: 104.67 ± 2.22% | CBN content of the sample after heating [9]: 8.79 ± 2.43 µg | Drug remaining [9]: 1440.57 ± 46.34 µg | THC content of the sample after heating [9]: 74.35 ± 5.26 µg | Drug remaining (%) [9]: (91.80 ± 4.90) % | CBN content of the sample, initial [9]: 8.27 ± 1.68 µg | Initial, μg (drug itself) [9]: 1570.09 ± 33.27 µg | THC content of the sample, initial [9]: 61.91 ± 9.49 µg | K [10]: 3.66 ± 0.68 ×10^−3 min^−1 | K [12]: 16 ± 0.19 ×10^−3 min^−1 | T1/2 [12]: 43.30 ± 0.51 min
